Test results: ChEMBL document CHEMBL1201862, “PubChem BioAssay data set” (2004)
Calls of active or inactive are those of the source.

Assays:
[1] = biological target: T1, Rac GTPase-activating protein 1 (Homo sapiens, UniProt Q9H0H5); experiment: MgcRacGAP GTPase-activating activity inhibitors, confirmation, biochemical, ADP Hunter fluorescence, primary and confirmatory (AID 624330); assay type: functional
T1 sequence (Q9H0H5 whole entry): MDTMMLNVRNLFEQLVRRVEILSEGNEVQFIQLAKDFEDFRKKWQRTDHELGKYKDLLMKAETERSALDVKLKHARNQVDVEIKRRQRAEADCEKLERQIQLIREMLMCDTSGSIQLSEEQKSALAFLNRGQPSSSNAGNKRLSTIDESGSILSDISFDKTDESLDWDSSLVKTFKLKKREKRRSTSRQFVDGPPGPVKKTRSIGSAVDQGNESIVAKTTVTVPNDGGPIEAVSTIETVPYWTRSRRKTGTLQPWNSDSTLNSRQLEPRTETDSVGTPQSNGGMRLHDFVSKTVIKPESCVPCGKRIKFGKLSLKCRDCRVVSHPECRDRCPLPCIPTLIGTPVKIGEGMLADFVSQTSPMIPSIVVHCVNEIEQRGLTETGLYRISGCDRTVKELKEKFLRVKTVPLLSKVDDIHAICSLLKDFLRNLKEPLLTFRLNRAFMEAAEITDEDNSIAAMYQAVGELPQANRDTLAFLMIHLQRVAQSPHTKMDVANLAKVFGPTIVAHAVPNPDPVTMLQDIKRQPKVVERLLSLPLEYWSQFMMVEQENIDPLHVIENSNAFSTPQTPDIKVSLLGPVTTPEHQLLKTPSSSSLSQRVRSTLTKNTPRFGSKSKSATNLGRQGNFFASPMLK

cells = assay type: functional
[2] = growth suppression of PTEN-null colon cells, dose response, cell-based, HCT116 PTEN knockout (AID 1047); assay type: functional;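 also: HCT116 colon tumor cells with PTEN knocked out; cells exposed to compound for 60 hours before readout; potency for loss of cell viability measured by luminescence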
[3] = growth suppression of beta-catenin-knockout colon cells, dose response, cell-based, HCT116, human colon tumor (AID 1045); assay type: functional;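 also: HCT116 colon tumor cells with beta catenin knocked out; cells exposed to compound for 60 hours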
[4] = Luminescence Cell-Based Dose Retest to Confirm Inhibitors of Cancer Stem Cells. [Related pubchem assays (depositor defined):AID2717, AID2721]; assay type: functional; settings: Homo sapiens
[5] = NIH-3T3 fibroblast cytotoxicity, dose response, cytotoxicity control, cell-based, fluorescence, Alamar Blue, secondary assay (AID 2327); assay type: functional;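 also: NIH-3T3 mouse fibroblasts cultured with fluconazole at 8 µg/mL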
[6] = inhibitors of intracellular T. cruzi replication, confirmation, NIH3T3 host cells, beta-gal luminescence (AID 2044); assay type: functional, cell-based;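 also: intracellular parasites grown in NIH/3T3 mouse fibroblasts as host cells; luminescent beta-galactosidase reporter signal from transgenic T. cruzi replicating inside host cells; inhibitors lower the luminescence signal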
[7] = cytotoxicity toward NIH3T3 fibroblasts, dose response, counter-screen, cell-based, ATP luminescence, mouse fibroblasts (AID 2010); assay type: functional;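 also: cells exposed to compound for about 90 hours before reading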
[8] = Luminescence Cell-Based Dose Response HTS to Identify Activators of Luciferase Translation or Activity in H4 […] Cells. [Related pubchem assays: 1829 (Project Summary), 1814 (Primary HTS)]; assay type: functional
H4 = experiment: Luminescence Cell-Based Dose Response HTS to Identify Activators of 5'UTR Stem-Loop Driven Prion Protein mRNA Translation in H4 Neuroglioblastoma Cells. [Related pubchem assays: 1829 (Project Summary), 1814 (Primary HTS)]; assay type: functional; settings: Homo sapiens
[9] = biological target: T2, Replicative DNA helicase DnaB (Mycobacterium tuberculosis, UniProt P9WMR3); experiment: DnaB intein splicing inhibitors, dose response, biochemical, cell-free fluorescence (AID 449749); assay type: functional
T2 sequence (P9WMR3 whole entry): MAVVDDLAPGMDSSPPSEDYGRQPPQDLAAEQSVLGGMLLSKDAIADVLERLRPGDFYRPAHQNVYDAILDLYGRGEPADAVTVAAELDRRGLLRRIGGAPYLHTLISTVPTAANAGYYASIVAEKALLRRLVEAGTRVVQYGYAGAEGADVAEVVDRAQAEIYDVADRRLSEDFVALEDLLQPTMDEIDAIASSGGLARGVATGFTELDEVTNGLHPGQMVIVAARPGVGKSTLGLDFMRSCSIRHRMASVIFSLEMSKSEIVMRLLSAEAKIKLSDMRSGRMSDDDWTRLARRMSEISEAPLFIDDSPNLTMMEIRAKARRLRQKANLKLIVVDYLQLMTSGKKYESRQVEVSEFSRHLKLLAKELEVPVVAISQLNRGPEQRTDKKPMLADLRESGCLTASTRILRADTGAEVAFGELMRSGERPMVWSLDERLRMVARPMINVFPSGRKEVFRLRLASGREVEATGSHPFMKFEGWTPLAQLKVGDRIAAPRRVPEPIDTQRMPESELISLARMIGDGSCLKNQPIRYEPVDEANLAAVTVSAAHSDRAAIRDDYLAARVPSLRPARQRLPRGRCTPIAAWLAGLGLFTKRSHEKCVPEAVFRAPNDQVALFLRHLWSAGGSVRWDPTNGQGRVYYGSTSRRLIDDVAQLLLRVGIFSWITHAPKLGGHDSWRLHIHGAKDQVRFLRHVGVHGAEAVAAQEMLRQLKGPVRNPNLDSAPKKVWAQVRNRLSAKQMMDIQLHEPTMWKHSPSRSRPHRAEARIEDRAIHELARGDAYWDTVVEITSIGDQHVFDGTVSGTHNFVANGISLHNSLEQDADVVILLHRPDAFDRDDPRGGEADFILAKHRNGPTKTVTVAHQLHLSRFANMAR

Protein RecA = biological target: T3, Protein RecA (Mycobacterium tuberculosis, UniProt P9WHJ3); experiment: Fluorescence Cell-Free Homogeneous Dose Retest to Identify Inhibitors of RecA-Intein Splicing Activity. [Related pubchem assays (depositor defined):AID2097, AID2223, AID489010, AID492950]; assay type: functional
T3 sequence (P9WHJ3 whole entry): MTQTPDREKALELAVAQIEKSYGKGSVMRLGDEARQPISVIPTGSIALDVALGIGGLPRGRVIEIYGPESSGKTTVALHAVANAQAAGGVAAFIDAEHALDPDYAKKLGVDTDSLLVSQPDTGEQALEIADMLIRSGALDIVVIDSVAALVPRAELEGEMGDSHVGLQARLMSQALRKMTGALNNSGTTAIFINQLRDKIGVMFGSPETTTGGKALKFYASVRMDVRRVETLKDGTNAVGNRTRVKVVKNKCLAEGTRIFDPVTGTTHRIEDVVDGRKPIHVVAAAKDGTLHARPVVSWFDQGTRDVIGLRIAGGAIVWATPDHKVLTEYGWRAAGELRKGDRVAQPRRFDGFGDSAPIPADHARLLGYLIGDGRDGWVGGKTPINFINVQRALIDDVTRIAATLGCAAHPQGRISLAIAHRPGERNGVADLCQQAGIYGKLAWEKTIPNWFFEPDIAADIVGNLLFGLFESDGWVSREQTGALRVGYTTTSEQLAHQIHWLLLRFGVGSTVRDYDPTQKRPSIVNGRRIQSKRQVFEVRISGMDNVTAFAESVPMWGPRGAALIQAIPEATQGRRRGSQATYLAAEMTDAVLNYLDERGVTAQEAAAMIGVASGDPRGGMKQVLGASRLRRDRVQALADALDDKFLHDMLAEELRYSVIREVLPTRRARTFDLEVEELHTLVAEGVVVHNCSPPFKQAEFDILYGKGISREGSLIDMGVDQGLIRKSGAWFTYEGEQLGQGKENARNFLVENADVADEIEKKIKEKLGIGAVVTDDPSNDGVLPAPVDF

[10] = test system: Streptococcus sp. 'group A'; experiment: growth inhibition of control SK(-) GAS strain, dose response, counter-screen for streptokinase expression inhibitor project, luminescence, kanamycin, BacTiterGlo, confirmation (AID 1900); assay type: functional, organism-based
Streptokinase A = biological target: T4, Streptokinase A (Streptococcus pyogenes serotype M1, UniProt P10520); experiment: S. pyogenes streptokinase expression inhibitors, potency, dose response, plasminogen activation absorbance, OD405 (AID 1914); assay type: functional, Streptococcus pyogenes M1 GAS;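 also: secreted streptokinase activity via plasminogen activation per viability signal from cell pellet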
T4 sequence (P10520 whole entry): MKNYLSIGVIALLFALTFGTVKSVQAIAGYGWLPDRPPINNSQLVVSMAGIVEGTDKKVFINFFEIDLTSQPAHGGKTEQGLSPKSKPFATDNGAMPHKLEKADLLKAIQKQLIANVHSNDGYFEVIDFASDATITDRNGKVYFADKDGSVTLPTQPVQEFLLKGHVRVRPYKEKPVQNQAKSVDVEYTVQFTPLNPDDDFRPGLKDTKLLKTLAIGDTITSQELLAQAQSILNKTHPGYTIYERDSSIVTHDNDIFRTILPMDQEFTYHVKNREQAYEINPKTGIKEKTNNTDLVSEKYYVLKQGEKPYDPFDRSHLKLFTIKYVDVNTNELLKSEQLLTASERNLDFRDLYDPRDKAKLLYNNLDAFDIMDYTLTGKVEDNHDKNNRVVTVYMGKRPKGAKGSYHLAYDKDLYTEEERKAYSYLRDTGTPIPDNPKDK

Streptococcus = experiment: Group A Streptococcus viability loss, dose response, counter-screen for streptokinase expression inhibitor project, luminescence, BacTiterGlo (AID 1915); assay type: functional, organism-based;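 also: potency for reduction of bacterial viability or growth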

In the case of `CCN(CC)c1ccc(S(=O)(=O)N2CCOCC2)cc1NC(=O)COC(=O)/C=C/c1ccc(O)c(OC)c1`, the IC50 [1] is reported as 108 µM (active).
For `COc1cc(/C=N/NC(=O)C(=O)Nc2ccccn2)ccc1O`, the IC50 [1] was 22.6 µM (active).
In the case of `Nc1ccccc1Nc1ccccc1`, the IC50 (cells) is reported as 1.28 µM (active) and the IC50 [1] is reported as 36.1 µM (active).
With `CCOc1cc(N2CCOCC2)c(OCC)cc1NC(=O)Cc1ccccc1OC` the EC50 [2] was 23.9 µM (active) and the EC50 [3] was 21.2 µM (active).
For `COc1ccc(NC2CCCN(C(=O)CCC3=NNC(=O)CC3)C2)cc1` (stereo unspecified), the IC50 [1] was 126 µM (active).
In the case of `Cc1ccc(-n2c(=S)[nH]c3sc4c(c3c2=O)CCC4)cc1`, the IC50 [1] is reported as 85.6 µM (active).
In the case of `COc1ccc(-c2csc(NC(=S)NC(=O)/C=C/c3ccco3)n2)cc1OC`, the EC50 [2] is reported as 1.62 µM (active), the EC50 [3] is reported as 3.11 µM (active) and the AC50 [4] is reported as 0.853 µM (active).
With `Cc1cccc(NC(=O)COC(=O)CCc2c[nH]c3ccccc23)c1` the IC50 (cells) was 0.71 µM (active).
With `CC1=NNC(=O)C1Br` (stereo unspecified) the IC50 [1] was 55.9 µM (active).
In the case of `O=C(Nc1cc2c3c(c1)C1CCCC1CN3CC1CCCC21)c1ccccc1` (stereo unspecified), the EC50 [5] is reported as > 160 µM (inactive), the EC50 [6] is reported as 0.78 µM (active) and the EC50 [7] is reported as > 60 µM (not active).
With `CN1/C(=C/C=N/NC(=O)c2ccc([N+](=O)[O-])cc2)C(C)(C)c2ccccc21` the EC50 [2] was 24.3 µM (active) and the EC50 [3] was 23.2 µM (active).
With `COc1ccc(-c2cc3ccccc3n2CC(O)CN2CCCCC2)cc1` (stereo unspecified) the IC50 [1] was 110 µM (active).
In the case of `O=C(COc1ccccc1F)N/N=C1\CCCc2ccccc21`, the EC50 [8] is reported as 24.8 µM (active) and the EC50 (H4) is reported as 53.3 µM (inconclusive).
For `N#CC(C(=O)NCc1ccco1)c1nc2ccccc2nc1N1CCOCC1` (stereo unspecified), the IC50 (cells) was 49 µM (active).
With `COC(=O)COc1ccc2c(=O)c(-c3ccccc3)coc2c1` the IC50 (cells) was < 0.1 µM (active).
In the case of `CC1(C)N=C(SCC(=O)Nc2ccc(Cl)cc2Cl)C(c2ccccc2)=N1`, the AC50 [9] is reported as 10.7 µM (active) and the EC50 (Protein RecA) is reported as 17.7 µM (active).
For `Cn1cc(C(=O)NCCN2CCN(c3cccc(Cl)c3)CC2)c2c3ccccc3n(C)c2c1=O`, the EC50 [2] was 46.8 µM (active) and the EC50 [3] was 63 µM (active).
For `CCCCn1c(S)nc2c(=O)n(C)c(=O)n(C)c21`, the IC50 [1] was 20.9 µM (active).
In the case of `CCn1c(CC(=O)Nc2ccc(C)c(Cl)c2)nnc1SCC(=O)Nc1nc(C)cs1`, the EC50 [2] is reported as 25.4 µM (active) and the EC50 [3] is reported as 27.2 µM (active).
In the case of `Cc1ccc(C)c(NS(=O)(=O)c2ccc3c(c2)Cc2cc(S(=O)(=O)Nc4cc(C)ccc4C)ccc2-3)c1`, the EC50 [2] is reported as 9.63 µM (active) and the EC50 [3] is reported as 11.2 µM (active).
With `COc1cccc(C(=O)OCC(=O)Nc2nnc(-c3ccccc3)o2)c1` the EC50 [10] was 7.55 µM (active), the EC50 (Streptokinase A) was > 150 µM (not active) and the EC50 (Streptococcus) was 60.9 µM (active). For the same molecule, the IC50 (cells) was 14.8 µM (active).
In the case of `O=C(NCc1cccnc1)NC1(C(F)(F)F)Oc2ccccc2O1`, the EC50 [2] is reported as 25.1 µM (active) and the EC50 [3] is reported as 23.3 µM (active).
In the case of `CN(C)/C=C/C(=O)c1ccc2noc(-c3ccc(F)cc3)c2c1`, the AC50 [9] is reported as > 380 µM (inactive) and the EC50 (Protein RecA) is reported as > 380 µM (inactive).
With `CCCSc1nc(O)c2cnn(-c3ccc(C)cc3)c2n1` the EC50 [2] was 22.2 µM (active) and the EC50 [3] was 20.7 µM (active).
In the case of `COc1ccccc1N1CCN(CCCOc2ccc(F)cc2)CC1`, the IC50 [1] is reported as 122 µM (active).
With `CCCc1nc(SCC(=O)N2CCc3ccccc3C2)c2ccccc2n1` the AC50 [9] was 14.1 µM (active) and the EC50 (Protein RecA) was 14.6 µM (active).
With `CCn1nc(C)c(C2C(C#N)=C(N)Oc3[nH]nc(C)c32)c1C` (stereo unspecified) the AC50 [9] was 88.9 µM (active) and the EC50 (Protein RecA) was 12.5 µM (active).
For `Cc1ccc2oc(=O)c3cc(C(=O)NCCCN4CCCCCC4)sc3c2c1`, the IC50 (cells) was > 50 µM (active).
In the case of `c1ccc(CSc2nnc(-c3c[nH]c4ccccc34)o2)cc1`, the EC50 [8] is reported as 28.7 µM (active) and the EC50 (H4) is reported as 70.2 µM (active).
In the case of `Nc1ccc(C(=O)N/N=C/c2ccc(N3CCOCC3)s2)cc1`, the IC50 [1] is reported as 16.5 µM (active).
